Source: patent publication US5747247A, “Spectroscopic helicase assay” (The Regents of The University of California, priority 1994, dated 1998)

Experiments:
[1] = test system: E. coli helicase I, helicase II (uvrD), and rep proteins; conditions: George et al., cited from earlier work; for Ki: read-out: Ki for ATPase and helicase activities
[2] = test system: helicase; conditions: other studies (refs 46-48); cited from earlier work
[3] = test system: recBCD enzyme; experiment: Dye displacement fluorometric helicase assay (DNA unwinding followed by dye fluorescence); format: biochemical, E. coli; conditions: for Apparent rate of unwinding at which the dye titration levels off: 0.5 nM total recBCD, 2 uM SSB, plateau at ~150 nM for H33258 and TO and 375 nM for DAPI; for Apparent rate of unwinding at which the dye titration levels off / Vmax, observed rate of unwinding at saturating enzyme: 20° C.; for Increase of Vmax in absence of SSB protein relative to its presence: SSB protein omitted vs present; for Vmax, observed rate of unwinding: SSB protein omitted; for Vmax, observed rate of unwinding / Vmax, observed rate of unwinding at saturating enzyme: 250 nM DAPI, 100 nM H33258, 300 nM TO; for Vmax, observed rate of unwinding at saturating enzyme / Apparent energy of activation (Ea) of unwinding: with SSB protein; for Vmax, observed rate of unwinding at saturating enzyme: SSB assay gives 250±25; for Apparent energy of activation (Ea) of unwinding: Arrhenius plots from 20°, 25°, 32°, 37° C., SSB assay 9.7
Protocol: (§1) Fluorometric helicase assay: The standard reaction buffer consisted of 25 mM Tris-acetate (pH 7.5), 1 mM Mg(OAc)2, and 1 mM DTT. When SSB protein was included, it was present at a 3-fold molar excess, assuming a site size of 15 nucleotides/monomer under stoichiometric conditions. This corresponds to a protein concentration which is 20% of the DNA (nucleotide) concentration. The DNA substrate was BamHI-digested pBR322 DNA, at a concentration of 10 uM nucleotide (2.1 nM ends).
(§2) The reaction (350 ul total volume) contained standard buffer, linear pBR322 DNA, and the indicated concentration of recBCD enzyme. […] The fluorescence signal due to these components was zeroed out. The fluorophore (either SSB protein or dye) was then added, and the reaction was allowed to equilibrate to the indicated temperature. Unwinding was initiated by the addition of ATP to 3 mM final concentration. […] For SSB protein fluorescence measurements, the value for 100% unwinding was calculated as described previously (28, 41). For dye fluorescence experiments, the value for complete unwinding was obtained by subtracting the fluorescence in the presence of an equimolar amount of ssDNA (i.e., heat-denatured pBR322) (FssDNA) from the fluorescence at the start of the reaction (FdsDNA). The difference in these values (FdsDNA -FssDNA) was taken to be the maximum fluorescence change possible if all of the DNA molecules were fully unwound (Fexp). The observed fluorescence change (Fobs) was divided by this differ ence to obtain the extent of unwinding. Initial rates were then calculated as described previously (28).
(§3) Fluorescence measurements were carried out on a Shimadzu RF5000U spectrofluorophotometer. When the intrinsic fluorescence of SSB protein was measured, the excitation and emission wavelengths were set at 290 and 340 nm, respectively. The excitation and emission wavelengths for the various dyes were determined experimentally in the presence of dsDNA. For AO, these values were 487 and 510 nm; for DAPI, 345 and 467 nm; for EB, 546 and 590 nm; for EHD, 552 and 596 nm; for H33258, 344 and 487 nm; and for TO, 504 and 528 nm. When SSB protein fluorescence was monitored, the band widths were 1.5 and 10 nm for the excitation and emission slits, respectively; for all of the dye fluorescence experiments, these values were 5 and 10 nm, respectively.
To determine whether the presence of dyes affected the observed rate of unwinding, the reaction (including SSB protein) was performed at several concentrations of DAPI, H33258, and TO. The reactions were performed at 20° C. in standard buffer with 10 uM nucleotide (2.1 nM ends) linear pBR322 DNA, 2 uM SSB protein, 0.5 nM total (0.17 nM functional) recBCD enzyme, and the indicated concentration of dye. Unwinding was initiated by adding ATP to a final concentration of 3 mM. […] For each dye (DAPI (.circle-solid.), H33258 (o), or TO (.tangle-solidup.), the initial rate of unwinding was determined as described in the Experimental Procedures and is plotted in panel B as a function of dye concentration. Due to the lag behavior illustrated in panel A, the data at concentrations ≤100 nM are considered unreliable, as indicated by shading this portion of the graph.
In FIG. 4A, raw data from an experiment in which recBCD enzyme concentration was varied at a given concentration of TO are shown; SSB protein was included to allow comparison to previous results. From results such as these, using either DAPI, H33258, or TO, the data in FIG. 4B were generated. Unwinding was performed as in FIG. 3, except that the concentration of recBCD enzyme was varied, and a constant concentration of fluorophore (250 nM for DAPI; 100 nM for H33258; and 300 nM for TO) was used. In panel A, a portion of the raw data obtained with TO are shown. The observed rates of unwinding derived from such experiments are shown in panel B. DAPI, .circle-solid.; H33258, o; TO, .tangle-solidup.. […]

[4] = target: T1, recBCD enzyme (Escherichia coli, UniProt P04993+P07648+P08394); experiment: SSB protein fluorescence assay of DNA unwinding in presence of fluorescent dyes; format: biochemical, E. coli; conditions: for Rate of DNA unwinding: 20° C., 2 uM SSB protein, 0.5 nM total recBCD enzyme, none = 40.7 ± 4.1
T1 construct: made in house
Protocol: as §1, §2, §3
The unwinding reaction was performed at 20° C. in buffer containing 25 mM Tris-acetate (pH 7.5), 1 mM Mg(OAc)2, 3 mM ATP, 1 mM DTT, 10 uM nucleotide BamHI-digested pBR322 DNA, 2 uM SSB protein, 0.5 nM total (0.17 nM functional) recBCD enzyme, and the indicated concentrations of dye. SSB protein fluorescence was monitored.

T1 sequence (P07648 whole entry): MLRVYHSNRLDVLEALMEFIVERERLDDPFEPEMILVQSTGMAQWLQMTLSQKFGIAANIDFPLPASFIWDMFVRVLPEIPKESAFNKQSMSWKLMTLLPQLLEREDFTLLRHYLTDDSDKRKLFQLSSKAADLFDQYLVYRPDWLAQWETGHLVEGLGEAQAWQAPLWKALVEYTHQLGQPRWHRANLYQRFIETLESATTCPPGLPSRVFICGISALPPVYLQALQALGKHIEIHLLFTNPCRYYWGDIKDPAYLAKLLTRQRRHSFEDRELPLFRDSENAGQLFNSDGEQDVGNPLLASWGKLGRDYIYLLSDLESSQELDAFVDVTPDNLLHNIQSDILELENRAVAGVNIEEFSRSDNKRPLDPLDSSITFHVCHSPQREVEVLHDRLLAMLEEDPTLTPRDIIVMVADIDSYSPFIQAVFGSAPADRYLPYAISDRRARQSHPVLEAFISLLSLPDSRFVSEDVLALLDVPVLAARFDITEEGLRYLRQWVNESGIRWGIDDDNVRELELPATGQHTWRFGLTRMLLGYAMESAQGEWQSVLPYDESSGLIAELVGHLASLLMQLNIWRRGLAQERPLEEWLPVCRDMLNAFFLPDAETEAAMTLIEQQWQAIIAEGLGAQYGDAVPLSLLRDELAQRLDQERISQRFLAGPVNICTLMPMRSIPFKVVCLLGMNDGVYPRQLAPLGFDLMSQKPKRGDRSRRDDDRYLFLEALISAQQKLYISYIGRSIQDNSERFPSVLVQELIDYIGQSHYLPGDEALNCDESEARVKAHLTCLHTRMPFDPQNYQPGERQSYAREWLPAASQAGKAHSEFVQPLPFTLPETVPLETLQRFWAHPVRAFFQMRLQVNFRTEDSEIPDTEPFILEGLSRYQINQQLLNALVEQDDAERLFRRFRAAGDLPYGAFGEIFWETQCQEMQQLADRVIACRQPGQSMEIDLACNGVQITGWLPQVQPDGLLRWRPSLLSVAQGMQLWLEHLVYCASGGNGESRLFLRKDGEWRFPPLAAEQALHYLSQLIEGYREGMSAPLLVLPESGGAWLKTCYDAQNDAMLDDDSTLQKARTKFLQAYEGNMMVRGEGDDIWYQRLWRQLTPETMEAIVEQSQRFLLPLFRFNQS
T1 sequence (P04993 whole entry): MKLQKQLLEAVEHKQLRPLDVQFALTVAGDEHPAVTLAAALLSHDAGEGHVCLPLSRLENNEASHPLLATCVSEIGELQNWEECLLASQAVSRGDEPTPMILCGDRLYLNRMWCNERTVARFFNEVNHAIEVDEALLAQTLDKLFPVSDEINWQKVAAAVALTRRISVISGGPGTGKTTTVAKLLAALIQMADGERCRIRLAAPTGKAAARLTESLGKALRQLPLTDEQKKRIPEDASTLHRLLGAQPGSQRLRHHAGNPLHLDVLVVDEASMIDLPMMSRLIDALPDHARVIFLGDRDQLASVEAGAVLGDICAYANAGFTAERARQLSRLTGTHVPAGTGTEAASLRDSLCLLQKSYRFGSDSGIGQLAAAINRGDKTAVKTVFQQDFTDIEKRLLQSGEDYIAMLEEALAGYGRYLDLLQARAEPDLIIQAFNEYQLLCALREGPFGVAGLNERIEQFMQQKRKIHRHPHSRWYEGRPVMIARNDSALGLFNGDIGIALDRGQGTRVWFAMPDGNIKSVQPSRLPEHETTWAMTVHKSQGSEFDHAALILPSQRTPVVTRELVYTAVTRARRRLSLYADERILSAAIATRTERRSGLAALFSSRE
T1 sequence (P08394 whole entry): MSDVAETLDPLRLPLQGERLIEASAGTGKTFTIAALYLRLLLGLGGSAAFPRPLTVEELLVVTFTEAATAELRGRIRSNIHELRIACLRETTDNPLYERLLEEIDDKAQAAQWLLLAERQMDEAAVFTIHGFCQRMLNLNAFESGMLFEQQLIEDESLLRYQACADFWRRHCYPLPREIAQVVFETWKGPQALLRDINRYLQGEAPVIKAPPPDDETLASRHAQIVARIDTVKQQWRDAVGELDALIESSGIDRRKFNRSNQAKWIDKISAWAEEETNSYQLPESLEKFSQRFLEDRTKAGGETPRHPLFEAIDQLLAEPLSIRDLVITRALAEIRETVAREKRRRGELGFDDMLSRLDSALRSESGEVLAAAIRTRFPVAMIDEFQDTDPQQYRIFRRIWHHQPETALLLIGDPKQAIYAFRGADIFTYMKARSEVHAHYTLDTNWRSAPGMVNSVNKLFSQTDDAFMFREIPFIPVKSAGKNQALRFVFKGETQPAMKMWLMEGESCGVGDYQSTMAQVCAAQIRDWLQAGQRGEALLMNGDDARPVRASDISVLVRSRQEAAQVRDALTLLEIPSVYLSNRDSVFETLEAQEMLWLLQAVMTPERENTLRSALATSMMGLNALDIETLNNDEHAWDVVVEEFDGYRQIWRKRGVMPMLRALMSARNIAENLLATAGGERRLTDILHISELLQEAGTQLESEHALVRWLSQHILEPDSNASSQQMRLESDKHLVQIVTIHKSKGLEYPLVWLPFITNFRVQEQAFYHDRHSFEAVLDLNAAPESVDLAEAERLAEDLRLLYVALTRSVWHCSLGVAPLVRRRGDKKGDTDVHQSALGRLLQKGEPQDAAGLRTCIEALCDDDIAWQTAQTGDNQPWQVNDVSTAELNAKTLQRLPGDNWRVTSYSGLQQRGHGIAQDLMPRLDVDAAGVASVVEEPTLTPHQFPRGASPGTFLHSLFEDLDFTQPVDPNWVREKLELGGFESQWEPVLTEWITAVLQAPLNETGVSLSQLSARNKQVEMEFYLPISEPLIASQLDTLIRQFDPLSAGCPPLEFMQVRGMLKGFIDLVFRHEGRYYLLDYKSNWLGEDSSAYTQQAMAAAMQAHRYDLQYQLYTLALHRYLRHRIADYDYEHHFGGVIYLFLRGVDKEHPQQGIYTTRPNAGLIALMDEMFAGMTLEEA

For `N=C(N)c1ccc(-c2cc3ccc(C(=N)N)cc3[nH]2)cc1`, the Ki [1] is listed as 1 to 10 µM.

In the case of `CN(C)c1ccc2cc3ccc(N(C)C)cc3nc2c1` [AO, acridine orange], the Ki [1] is given as 1 to 10 µM.

For `COc1c(O)c2c(c3cc(C(=O)N4CCc5c4c(O)c(OC)c4[nH]c(C(=O)N6CC7CC78C6=CC(=O)c6[nH]cc(C)c68)cc54)[nH]c13)CCN2C(N)=O` (stereo not shown) [CC-1065], the “Inhibition of helicase activity” value [2] is given as “inhibition of helicase activity”.

With `CN1CCN(c2ccc3[nH]c(-c4ccc5[nH]c(-c6ccc(O)cc6)nc5c4)nc3c2)CC1` [H33258, Hoechst 33258] the “Apparent rate of unwinding at which the dye titration levels off” value [3] was 20-25 nM bp/s, the “Rate of unwinding at optimal dye concentration compared with SSB protein fluorescence assay” value ([3]; 400 nm DAPI, 300 nm H33258) was “within experimental error, equal to those obtained using the SSB protein fluorescence assay” and the “Increase of Vmax in absence of SSB protein relative to its presence” value [3] was 25-50%. For the same compound, the “Vmax, observed rate of unwinding” value [3] was 272±30 nM bp/s, the “Vmax, observed rate of unwinding at saturating enzyme” value [3] was 221±25 nM bp/s and the “Apparent energy of activation (Ea) of unwinding” value [3] was 9.9 kcal/mol. The “Rate of DNA unwinding” value ([4]; 100 nM dye) was 36.1 ± 4.5 nm bp/s, the “Rate of DNA unwinding” value ([4]; 250 nM dye) was 35.5 ± 1.9 nm bp/s and the “Effect on observed rate of unwinding” value ([4]; dye at 100 or 250 nM, low enzyme concentration) was “does not affect the observed rate of unwinding”. For the same compound, the Ki [1] was 1 to 10 µM.

In the case of `CN1C(=Cc2cc[n+](C)c3ccccc23)Sc2ccccc21` [TO, thiazole orange], the “Apparent rate of unwinding at which the dye titration levels off” value [3] is reported as 20-25 nM bp/s, the “Increase of Vmax in absence of SSB protein relative to its presence” value [3] is reported as 25-50% and the “Vmax, observed rate of unwinding” value [3] is reported as 330±25 nM bp/s. For the same compound, the “Vmax, observed rate of unwinding at saturating enzyme” value [3] was 211±15 nM bp/s, the “Apparent energy of activation (Ea) of unwinding” value [3] was 9.7 kcal/mol and the “Rate of DNA unwinding” value ([4]; 100 nM dye) was 35.6 ± 1.3 nm bp/s. For the same compound, the “Rate of DNA unwinding” value ([4]; 250 nM dye) was 31.9 ± 0.7 nm bp/s and the inhibition at 0.25 µM ([4]; read-out: Decrease of observed rate of unwinding) was under 20%.

In the case of `O=C1c2c(O)ccc(O)c2C(=O)c2c(NCCNCCO)ccc(NCCNCCO)c21` [mitoxantrone], the Inhibition of helicases ([1]; dependent upon ligand and enzyme) is listed as “potent but differential inhibition”.
